Experimental data as given in patent US20110171160A1, “POLYMER CONJUGATES OF KISS1 PEPTIDES” (Nektar Therapeutics, priority 2008, published 2011).
No end group written: not given here.

Target: T1, human GPR54 (Homo sapiens, UniProt Q969F8)
T1 construct: host or cells: Chem-1 host cells, with the promiscuous G protein Galpha15 (Gal 5 [sic])
Assay: FLIPR calcium flux agonist assay on GPR54-expressing Chem-1 cell line
Format: cell-based
Settings: time of release n/a (no release incubation); for EC50: read-out: EC50 (nM) of agonist activation at GPR54
Experimental: A FLIPR assay was conducted to screen Kisspeptin and PEG-Kisspeptin peptides for dose-dependent agonist activities on the GP[…]-Protein coupled receptor. […] All compounds were diluted in their storage solvents to produce 250× (of the top dose listed below) master stock solutions. Compounds were then transferred from their master stock solutions into a daughter plate that was used in the assay. Each 250× solution was diluted into assay buffer (1×HBSS with 20 mM HEPES and 2.5 mM Probenecid) to obtain the final top test concentration. Calcium flux agonist assay: Chemicon's cloned human GPR54-expressing cell line is made in the Chem-1 host, which supports high levels of recombinant GPR54 expression on the cell surface and contains high levels of the promiscuous G protein Gal 5 to couple the receptor to the calcium signaling pathway. […] Reference agonist was handled as mentioned above, serving as assay control. Assay was read for 180 seconds using the FLIPR^TETRA. All plates were subjected to appropriate baseline corrections. Once baseline corrections were processed, maximum fluorescence values were exported and data manipulated to calculate percentage activation and Z'. Dose response curves were generated using GraphPad Prism. The curves were fit by utilizing sigmoidal dose response (variable slope) fitting with the bottom parameter fixed at 0 (FIGS.

T1 sequence (Q969F8 whole entry): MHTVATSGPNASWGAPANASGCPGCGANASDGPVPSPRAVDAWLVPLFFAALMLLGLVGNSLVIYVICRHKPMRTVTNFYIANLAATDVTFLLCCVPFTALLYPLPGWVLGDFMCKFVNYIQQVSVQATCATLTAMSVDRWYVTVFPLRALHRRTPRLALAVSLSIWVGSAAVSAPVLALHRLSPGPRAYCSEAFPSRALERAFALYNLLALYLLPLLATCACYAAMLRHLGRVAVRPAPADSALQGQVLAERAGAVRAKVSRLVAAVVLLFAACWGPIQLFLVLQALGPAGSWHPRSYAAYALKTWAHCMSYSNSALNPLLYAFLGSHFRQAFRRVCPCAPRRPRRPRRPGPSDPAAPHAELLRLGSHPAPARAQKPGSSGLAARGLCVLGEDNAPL

Row | Compound | Fold change compared to metastin | EC50 | EC50 (nM) of agonist activation at GPR54
1 | CC(C)C[C@H](NC(=O)CNC(=O)[C@H](Cc1ccccc1)NC(=O)[C@H](CO)NC(=O)[C@H](CC(N)=O)NC(=O)[C@H](Cc1c[nH]c2ccccc12)NC(=O)[C@H](CC(N)=O)NC(=O)[C@@H](N)Cc1ccc(O)cc1)C(=O)N[C@@H](CCCNC(=N)N)C(=O)N[C@@H](Cc1ccccc1)C(N)=O [KP10] | 1 fold | 10 nM | –
2 | CC(C)C[C@H](NC(=O)CNC(=O)[C@H](Cc1ccccc1)NC(=O)[C@H](CO)NC(=O)[C@H](CC(N)=O)NC(=O)[C@H](Cc1c[nH]c2ccccc12)NC(=O)[C@H](CC(N)=O)NC(=O)[C@H](Cc1ccc(O)cc1)NC(=O)[C@H](CC(N)=O)NC(=O)[C@@H]1CCCN1C(=O)[C@@H](N)CC(C)C)C(=O)N[C@@H](CCCNC(=N)N)C(=O)N[C@@H](Cc1ccccc1)C(N)=O [KP13] | 1 fold | 11 nM | –
3 | Ald30K-KP13: Kisspeptin-13 mono-PEGylated with linear mPEG-ButyrALD-30K by reductive amination (stable conjugate) (LPNYNWNSFGLRF; also: mono-PEGylated with mPEG-butyraldehyde 30K by reductive amination, site not given here; UniProt Q15726 109-121, looked up) | – | – | No activity
4 | Ald40K-KP54: Kisspeptin-54 mono-PEGylated with mPEG2-ButyrAldehyde-40K by reductive amination (stable conjugate) (GTSLSPPPESSGSPQQPGLSAPHSRQIPAPQGAVLVQREKDLPNYNWNSFGLRF-NH2; also: mono-PEGylated with mPEG2-butyraldehyde 40K by reductive amination, site not given here; UniProt Q15726 68-121, looked up) | – | – | No activity
5 | GTSLSPPPESSGSPQQPGLSAPHSRQIPAPQGAVLVQREKDLPNYNWNSFGLRF-NH2 [KP54] | 16 fold | 190 nM | –
